Where two headings read alike, the source gives them in different places. Each block holds one compound with its values, some of them ahead of it.
Experiments:
MES-SA/DX5 cells = assay: Growth inhibition (SRB) assay, MES-SA/Dx5; format: cell-based; settings: ratio of IC50 MES-SA/DX5 to MES-SA
[1] = test system: DU 145 human prostate cancer cell line; assay: Cytotoxicity (SRB) assay, DU 145; format: cell-based; settings: Homo sapiens
Text: (§1) Cells were stained with SRB solution.

[2] = test system: PPC-1 human prostate cancer cell line; assay: Cytotoxicity (SRB) assay, PPC-1; format: cell-based; settings: Homo sapiens
Text: as §1

[3] = test system: PC-3 human prostate cancer cell line; assay: cells; settings: Homo sapiens
Text: as §1

[4] = test system: PC-3_TxR paclitaxel-resistant prostate cancer cells (P-gp over-expressing); assay: cells; settings: Homo sapiens, PC3-TxR
DU-145/TXR cells = assay: Growth inhibition, DU-145/TXR; format: cell-based; settings: Homo sapiens, DU-145, Table 13A; read-out: inhibitory effects, DU-145/TXR
[5] = test system: MDA-MB-435 parental nonresistant melanoma cells; assay: Cytotoxicity (SRB) assay, MDA-MB-435; format: cell-based; settings: Homo sapiens, Table 14D, read-out: IC50 ± SEM, MDA-MB-435 (converted)
[6] = test system: LNCaP human prostate cancer cell line; assay: Cytotoxicity (SRB) assay, LNCaP; format: cell-based; settings: Homo sapiens, LNCaP
Text: as §1

[7] = test system: MDA-MB-435/LCCMDR1 multidrug-resistant melanoma cells; assay: Cytotoxicity (SRB) assay, MDA-MB-435/LCCMDR1; format: cell-based; settings: Homo sapiens; Table 14D; read-out: IC50 ± SEM, MDA-MB-435/LCC-6MDR1 (converted)
WM-164 melanoma cells = assay: Microtubule imaging (immunofluorescence); format: cell-based, human; settings: WM-164 cells, 18 h
Text: Primary antibody for tubulin and fluorescence-labeled secondary antibody were subsequently added to the cells. Cell nuclei were stained by DAPI. Whole Cell Stain Green was also applied to all cells. All images were acquired with an Olympus IX71 inverted fluorescence microscope (Olympus Corp., Tokyo, Japan) with overlays from separate images of tubulin (red), nuclei (blue), and whole cells (green).

HEK293-pcDNA3.1 cells = assay: Cytotoxicity assay, HEK293-pcDNA3.1 (parental line of the MRP/BCRP sublines); format: cell-based; settings: Table 14B; parental cell line; read-out: IC50 ± SEM, HEK293-pcDNA3.1
[8] = test system: OVCAR-8 human ovarian cell line; assay: Cytotoxicity (SRB) assay, OVCAR-8; format: cell-based; settings: Table 14B, parental cell line, read-out: IC50 ± SEM, OVCAR-8
[9] = test system: A375MA2 melanoma cell line; assay: Cytotoxicity assay, A375MA2; format: cell-based; settings: Table 14B, n = 3; read-out: IC50 ± SEM, A375MA2
B16-F1 melanoma tumors = assay: In vivo B16-F1 melanoma allograft; parameters: species or system mouse
Experimental: Female C57/BL mice, age 4-6 weeks, were purchased from Harlan Laboratories (Harlan Laboratories Inc., Indianapolis, Ind.). The animal housing met the Association for Assessment and Accreditation and Laboratory Animal Care specifications. All of the procedures were conducted in accordance with guidelines of our Institutional Animal Care and Use Committee.
Tumor volume was expressed in cubic millimeters.

PC-3_TxR xenograft = assay: In vivo PC-3/TxR xenograft; settings: for tumor growth inhibition (TGI): PC-3/TxR tumors
[10] = DU-145, Table 13A, read-out: inhibitory effects, DU145
[11] = PPC-1, Table 13A, read-out: inhibitory effects, PPC1
[12] = read-out: inhibitory effects, PC3, Table 13A
[13] = read-out: inhibitory effects, PC3/TXR
[14] = Table 13A, read-out: inhibitory effects, LNCaP

SMILES: Fc1ccc(-c2nccc3ccc(-c4ccc5[nH]ccc5c4)cc23)cc1 [6c, 1-(4-Fluoro-phenyl)-7-(H-indol-5-yl)-isoquinoline]
Resistance factor (MES-SA/DX5 cells): 1.7

SMILES: COc1ccc(-c2nc(C(=O)c3ccc(F)cc3)c[nH]2)cc1 [12cb, (4-fluorophenyl)(2-(4-methoxyphenyl)-1H-imidazol-4-yl)methanone]
effect on microtubules in words (WM-164 melanoma cells): microtubule fragmentation
IC50 (HEK293-pcDNA3.1 cells): 12 ± 2 nM
IC50 [8]: 25 ± 2 nM
IC50 [9]: 44 ± 5 nM

SMILES: CN(C)/N=N/c1[nH]cnc1C(N)=O [DTIC, 5-(3,3,-dimethyl-1-triazenyl)-imidazole-4-carboxamide, reference compound]
tumor volume reduction (B16-F1 melanoma tumors; C57/BL mice, 60 mg/kg i.p. daily, 14 days): 51%
tumor growth inhibition (TGI) (B16-F1 melanoma tumors; C57BL/6 mice, 60 mg/kg, 13 days): 51%

SMILES: CC(=O)O[C@@]12CO[C@@H]1C[C@H](O)[C@@]1(C)C(=O)[C@H](O)C3=C(C)[C@@H](OC(=O)[C@H](O)[C@@H](NC(=O)OC(C)(C)C)c4ccccc4)C[C@@](O)([C@@H](OC(=O)c4ccccc4)[C@H]21)C3(C)C [docetaxel, reference compound]
tumor growth inhibition (TGI) (PC-3_TxR xenograft; i.v. 10 mg/kg on day 1 and 9): 14%
tumor growth inhibition (TGI) (PC-3_TxR xenograft; i.v. 20 mg/kg on day 1 and 9): 56%
Tumor size End (PC-3_TxR xenograft; PC-3/TxR xenograft, IV 10 mpk, day 1 and 9, day 19, […]): 1774 ± 183 mm^2
IC50 ([3]; read-out: IC50, PC-3, Table 7): 6.3 ± 0.4 nM
IC50 ([3]; read-out: IC50 PC-3, SRB assay, prostate cancer PC-3): 1.2 ± 0.1 nM
IC50 ([4]; read-out: IC50 PC-3/TxR): 17.7 ± 0.7 nM

Second part, led by results:

IC50 [3, 12]: 16 nM
IC50 [4, 13]: 7.5 nM
IC50 (DU-145/TXR cells): 27 nM
SMILES: COc1cc(C(=O)c2nc(-c3ccccc3)cn2C)cc(OC)c1OC [70m, (1-Methyl-4-phenyl-1H-imidazol-2-yl)(3,4,5-trimethoxyphenyl)methanone]
IC50 [1, 10]: 26 nM
IC50 [2, 11]: 13 nM

IC50 ([3]; read-out: IC50 ± SEM, PC-3, Table 12): 136 nM
SMILES: COc1cc(C(=O)c2c[nH]c(-c3ccc(C(C)C)cc3)n2)cc(OC)c1OC [12v, (2-(4-isopropylphenyl)-1H-imidazol-4-yl)(3,4,5-trimethoxyphenyl)methanone]
IC50 ([1]; DU-145, Table 12, read-out: IC50 ± SEM, Du 145): 482 nM
IC50 ([2]; PPC-1, Table 12, read-out: IC50 ± SEM, PPC-1 (converted)): 173 nM
IC50 [5]: 312 nM
IC50 ([6]; Table 12, read-out: IC50 ± SEM, LNCaP (converted)): 171 nM
IC50 [7]: 250 nM

IC50 [3, 12]: 14 nM
IC50 (DU-145/TXR cells): 22.9 nM
SMILES: COc1cc(C(=O)c2nc(-c3ccccc3)c[nH]2)cc(OC)c1OC [70a, (4-Phenyl-1H-imidazol-2-yl)(3,4,5-trimethoxyphenyl)methanone and (5-phenyl-1H-imidazol-2-yl)(3,4,5-trimethoxyphenyl)methanone]
IC50 [1, 10]: 21.5 nM
IC50 [2, 11]: 13 nM
IC50 [5]: 79 nM
IC50 [6, 14]: 6 nM
IC50 [7]: 43 nM

IC50 [3, 12]: 25 nM
IC50 [4, 13]: 20 nM
IC50 (DU-145/TXR cells): 66 nM
SMILES: CCn1cc(-c2ccccc2)nc1C(=O)c1cc(OC)c(OC)c(OC)c1 [70n, (1-Ethyl-4-phenyl-1H-imidazol-2-yl)(3,4,5-trimethoxyphenyl)methanone]
IC50 [1, 10]: 66 nM
IC50 [6, 14]: 29 nM

— patent publication US11465987B2, “Compounds for treatment of cancer” (ONCTERNAL THERAPEUTICS, INC., priority 2012, dated 2022)
